Measurements from PMC10676574, “In-silico and in-vitro screening of Asiatic acid and Asiaticoside A against Cathepsin S enzyme” (BMC Pharmacology & Toxicology, 2023).
Where two headings read alike, the source gives them in different places.

Molecular target: T1, Cathepsin S (Homo sapiens, UniProt P25774)
T1 construct: gene CTSS
Test: fluorometric cathepsin S inhibitor assay kit (ab185437), Z-VVR-AFC substrate, kinetic mode
Format: biochemical

T1 sequence (P25774 115-331): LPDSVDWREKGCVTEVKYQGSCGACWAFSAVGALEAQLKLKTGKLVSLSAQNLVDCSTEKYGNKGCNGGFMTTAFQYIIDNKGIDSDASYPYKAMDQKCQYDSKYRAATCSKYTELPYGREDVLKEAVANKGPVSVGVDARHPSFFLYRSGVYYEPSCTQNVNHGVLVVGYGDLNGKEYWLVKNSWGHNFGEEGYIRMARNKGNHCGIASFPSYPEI

Row | IC50 (read-out: IC50) [µM] | Compound | IC50 [µM]
1 | – | C[C@H]1[C@H](C)CC[C@]2(C(=O)O)CC[C@]3(C)C(=CC[C@@H]4[C@@]5(C)C[C@@H](O)[C@H](O)[C@@](C)(CO)[C@@H]5CC[C@]43C)[C@H]12 [asiatic acid] | 14.6
2 | 0.667 | asiaticoside A | –
